Consider 49 compounds from the supplement of paper PMC6723410.

The test system of assay [1] is GUMC-403. Kind of assay: viability at highest tested concentration (max response) relative to DMSO (% of DMSO control); higher = less cytotoxic. As to conditions: library / dose series: MIPE library, 11-point 1:3 dilution; top concentration 46.1 µM; 48 h. Summed up: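 Viability at the highest tested concentration is given relative to vehicle control. For this, conditionally reprogrammed patient-derived GUMC-403 papilloma cells at 700/well in 1536-well plates were exposed to 23 nL of pinned compound for 48 h. Luminescence from CellTiter-Glo was read on a ViewLux and scaled between empty wells (0%) and vehicle wells (100%).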

The test system of assay [2] is GUMC-403. Kind of assay: AC50 for reduction of cell viability; higher = less potent. As to conditions: 48 h.
Where [3] appears, read: library / dose series: MIPE library, 11-point 1:3 dilution.

For `NC1(C(=O)N[C@@H](CCO)c2ccc(Cl)cc2)CCN(c2ncnc3[nH]ccc23)CC1`, the viability in assay [1] came to 33.6. Further, the “AC50 for reduction of cell viability” value in assay [2] (setting [3]) stood at 16.6 µM.
Taken in the same sequence, the figures for `CC(=O)[C@]1(O)Cc2c(O)c3c(c(O)c2[C@@H](O[C@H]2C[C@H](N)[C@H](O)[C@H](C)O2)C1)C(=O)c1ccccc1C3=O` were 7.29 and 2.35 µM.
The compound `O=C(NOCC1CC1)c1ccc(F)c(F)c1Nc1ccc(I)cc1Cl` displayed a viability in assay [1] of 20.7. The “AC50 for reduction of cell viability” value in assay [2] (setting [3]) was determined as 23.5 µM; in assay [2] (library / dose series: NPC library, 8-point 1:5 dilution) it was 13.3 µM.
In assay [1], `COc1cccc2c1C(=O)c1c(O)c3c(c(O)c1C2=O)C[C@@](O)(C(C)=O)C[C@@H]3O[C@H]1C[C@H](N)[C@H](O)[C@H](C)O1` registered a viability of 33.5. Moreover, in assay [2] (setting [3]), the “AC50 for reduction of cell viability” value amounted to 0.372 µM.
The like results for `Cc1nc(NC(=O)N2CCC[C@H]2C(N)=O)sc1-c1csc(C(C)(C)C)n1` were, in that order, 30.8 and 10.5 µM.
Taken in the same sequence, the figures for `Nc1cc(C(F)(F)F)c(-c2cc(N3CCOCC3)nc(N3CCOCC3)n2)cn1` were 44 and 1.48 µM.
Taken in the same sequence, the figures for `CC(C)C[C@H](NC(=O)CNC(=O)c1cc(Cl)ccc1Cl)B(O)O` were 14.7 and 3.32 µM.
In assay [1], `CSCC[C@H](NC(=O)[C@H](Cc1c[nH]c2ccccc12)NC(=O)CCNC(=O)OC(C)(C)C)C(=O)N[C@@H](CC(=O)O)C(=O)N[C@@H](Cc1ccccc1)C(N)=O` yielded a viability of 30.1. Besides, the “AC50 for reduction of cell viability” value in assay [2] (setting [3]) was found to be 5.9 µM.
The compound `CNC(=O)c1nn(C)c2c1C(C)(C)Cc1cnc(Nc3ccc(N4CCN(C)CC4)cc3)nc1-2` displayed a viability in assay [1] of 58.7. In addition, the “AC50 for reduction of cell viability” value in assay [2] (setting [3]) worked out at 4.69 µM.
Taken in the same sequence, the figures for `CCN1CCN(CC1)CC(=O)NC2=CC=C(C3=C2C4=C(S3)C=CC=C4)C5=C6O\C(=C/C(=O)C6=CC=C5)N7CCOCC7` were 58.7 and 2.96 µM.
With `Cc1ccc(NC(=O)C2(c3ccc4c(c3)OC(F)(F)O4)CC2)nc1-c1cccc(C(=O)O)c1`, the viability in assay [1] was 6.42. Moreover, the “AC50 for reduction of cell viability” value in assay [2] (setting [3]) was determined as 1.66 µM.
The like results for `c1cncc(CN2CCC(n3ncc4c(N5CCOCC5)nc(-c5ccc6[nH]ccc6c5)nc43)CC2)c1` were, in that order, 62.6 and 0.332 µM.
In turn, `Nc1ncnc2c1c(-c1cnc3[nH]ccc3c1)nn2C1CCCC1` had a viability in assay [1] of 7.41. Further, the “AC50 for reduction of cell viability” value in assay [2] (setting [3]) worked out at 8.33 µM.
The like results for `CC(C)(O)c1cc2nc(-c3cnc(N)nc3)nc(N3CCOCC3)c2s1` were, in that order, 33.5 and 0.148 µM.
The like results for `CN(C)CCN(C)C(=O)c1ccc(NC(=O)Nc2ccc(-c3nc(N4CCOCC4)c4ccn(CC(F)(F)F)c4n3)cc2)cc1` were, in that order, 5.64 and 0.118 µM.
Regarding `CCC[C@@H](C=O)NC(=O)[C@H](CC(C)C)NC(=O)[C@H](CC(C)C)NC(=O)OCc1ccccc1`, in assay [1], the viability was determined as 7.94. Further, the “AC50 for reduction of cell viability” value in assay [2] (setting [3]) stood at 14.8 µM.
The like results for `CC(C)(O)Cn1c(NC(=O)c2ccc(-c3cn[nH]c3)s2)nc2cc(CN3CCOCC3)ccc21` were, in that order, 5.55 and 2.35 µM.
Taken in the same sequence, the figures for `CNC(=O)c1ccccc1Nc1nc(Nc2ccc(N3CCOCC3)cc2OC)ncc1Cl` were 9.51 and 1.48 µM.
Taken in the same sequence, the figures for `CC1=C2N=C([NH]C2=CC(=C1)N3CCOCC3)\C4=C(NC[C@@H](O)C5=CC=CC(=C5)Cl)\C=C/NC4=O` were 13.8 and 0.235 µM.
In the case of `C[C@@H]1O[C@@H](O[C@H]2C[C@@H](O)[C@]3(CO)[C@H]4[C@H](O)C[C@]5(C)[C@@H](C6=CC(=O)OC6)CC[C@]5(O)[C@@H]4CC[C@]3(O)C2)[C@H](O)[C@H](O)[C@H]1O`, the viability in assay [1] came to 75.4. For the same compound, in assay [2] (setting [3]), the “AC50 for reduction of cell viability” value came to 0.0296 µM.
The like results for `C[C@@]12O[C@@H](C[C@]1(O)CO)n1c3ccccc3c3c4c(c5c6ccccc6n2c5c31)CNC4=O` were, in that order, 7.55 and 5.9 µM.
As for `CC(C)c1cc(C(=O)N2Cc3ccc(CN4CCN(C)CC4)cc3C2)c(O)cc1O`, the viability in assay [1] was 75.9. The “AC50 for reduction of cell viability” value in assay [2] (setting [3]) turned out to be 0.833 µM.
In assay [1], `Cc1c(CN2CCN([S+](C)(=O)[O-])CC2)sc2c(N3CCOCC3)nc(-c3cnc(N)nc3)nc12` gave a viability of 41.9. The “AC50 for reduction of cell viability” value in assay [2] (setting [3]) was 0.118 µM.
On to `CN[C@@H]1[C@H](O)[C@H](NC)[C@H]2O[C@@]3(O)C(=O)C[C@@H](C)O[C@H]3O[C@@H]2[C@H]1O`, for which the viability in assay [1] is 13.3. Further, the “AC50 for reduction of cell viability” value in assay [2] (setting [3]) came out at 10.5 µM.
The like results for `O=C(NCCCNc1nc(Nc2cccc(NC(=O)N3CCCC3)c2)ncc1I)c1cccs1` were, in that order, 3.39 and 10.5 µM.
`COc1cc2ncn(-c3cc(OCc4ccccc4C(F)(F)F)c(C(N)=O)s3)c2cc1OC` yielded a viability in assay [1] of 18.8. Moreover, the “AC50 for reduction of cell viability” value in assay [2] (setting [3]) was found to be 23.5 µM.
The compound `CCNC(=O)Nc1ccc(-c2nc3c(c(N4CCOC[C@@H]4C)n2)CCN(C2COC2)C3)cc1` came in with a viability in assay [1] of 60.3. Further, in assay [2] (setting [3]), the “AC50 for reduction of cell viability” value worked out at 1.18 µM.
Taken in the same sequence, the figures for `CC(C)C[C@@H](C=O)NC(=O)[C@H](CC(C)C)NC(=O)[C@H](CC(C)C)NC(=O)OCc1ccccc1` were 9.05 and 10.5 µM.
Taken in the same sequence, the figures for `C/C=C1\NC(=O)[C@H]2CSSCC/C=C\[C@H](CC(=O)N[C@H](C(C)C)C(=O)N2)OC(=O)[C@H](C(C)C)NC1=O` were 6.97 and 0.105 µM.
Taken in the same sequence, the figures for `Cc1ncc(-c2ccnc(Nc3ccc([S+](C)(=O)[O-])cc3)n2)n1C(C)C` were 47.8 and 10.5 µM.
Regarding `Cc1ccc2nc(NCCN)c3ncc(C)n3c2c1`, the viability in assay [1] is 33.4. In addition, the “AC50 for reduction of cell viability” value in assay [2] (setting [3]) came out at 13.2 µM.
For `COc1cc2nc(-c3ccc(N4CCN(C)CC4)cc3)nc(NCCN3CCOCC3)c2cc1OC`, the viability in assay [1] came to 48.5. In addition, the “AC50 for reduction of cell viability” value in assay [2] (setting [3]) worked out at 1.05 µM.
The like results for `CC(C)[C@]12O[C@H]1[C@@H]3O[C@@]34[C@@]5(C)CC\C6=C(COC6=O)/[C@@H]5C[C@@H]7O[C@]47[C@@H]2O` were, in that order, 22.7 and 0.0332 µM.
For the compound `CC(NCc1ccc2c(c1)[nH]/c(=N\C(=O)c1ccc(-c3cn[nH]c3)s1)n2CC(C)(C)O)C(C)(C)C` (centres undefined), the viability in assay [1] was 6.2. Moreover, the “AC50 for reduction of cell viability” value in assay [2] (setting [3]) was 0.935 µM.
For the compound `COC[C@H]1OC(=O)C2=COC3=C2[C@@]1(C)\C4=C(\[C@@H]5CC[C@H](O)[C@@]5(C)C[C@H]4OC(C)=O)C3=O`, in assay [1], the viability stood at 57.4. Further, the “AC50 for reduction of cell viability” value in assay [2] (setting [3]) is 4.18 µM.
The like results for `COc1ncc(-c2ccc3nccc(-c4ccnnc4)c3c2)cc1N[S+](=O)([O-])c1ccc(F)cc1F` were, in that order, 9.41 and 0.59 µM.
The like results for `N[S+](=O)([O-])c1cccc2c1C(=O)c1cccc(O)c1C2=O` were, in that order, 4.44 and 13.2 µM.
Compound `Cc1nc(Nc2n[nH]c3c2CN(C(=O)N[C@H](CN(C)C)c2ccccc2)C3(C)C)c2sccc2n1` came in with a viability in assay [1] of 7.84. For the same compound, in assay [2] (setting [3]), the “AC50 for reduction of cell viability” value stood at 3.72 µM.
Taken in the same sequence, the figures for `CN(C)c1ccc2nc3ccc(N(C)C)cc3[s+]c2c1` were 6.57 and 7.43 µM.
The like results for `Nc1nc(F)nc2c1ncn2[C@@H]1O[C@H](CO)[C@@H](O)[C@H]1O` were, in that order, 47.8 and 3.72 µM.
The like results for `CO[C@H]1/C=C\C=C(\C)C(=O)NC2=CC(=O)C(NCCN(C)C)=C(C[C@@H](C)C[C@H](OC)[C@H](O)[C@@H](C)/C=C(/C)[C@@H]1OC(N)=O)C2=O` were, in that order, 5.25 and 1.18 µM.
`CC(=O)NCC(=O)N1[C@@H]2CC[C@H]1c1ccc(Nc3ncc(C(F)(F)F)c(NC4CCC4)n3)cc12` came in with a viability in assay [1] of 4.61. The “AC50 for reduction of cell viability” value in assay [2] (setting [3]) was found to be 18.7 µM.
The like results for `CC(C)[C@H](C(=O)Nc1ccc(C(=O)NO)cc1)c1ccccc1` were, in that order, 11 and 18.7 µM.
The like results for `O=C(Nc1cccc(Nc2ncc(Br)c(NCCc3cnc[nH]3)n2)c1)N1CCCC1` were, in that order, 6.39 and 20.9 µM.
Taken in the same sequence, the figures for `CC(C)N[C@@H]1CCn2c(=O)[nH]c3cccc(c32)[C@H]1O` were 30.4 and 9.35 µM.
Compound `O=C1c2ccccc2-[n+]2ccc3c([nH]c4ccccc43)c21` yielded a viability in assay [1] of 3.22. For the same compound, in assay [2] (setting [3]), the “AC50 for reduction of cell viability” value is 4.18 µM.
The like results for `Cc1n[nH]c2ccc(-c3cncc(OC[C@@H](N)Cc4ccccc4)c3)cc12` were, in that order, 5.22 and 2.64 µM.
Taken in the same sequence, the figures for `Cc1nc(N)sc1-c1ccnc(Nc2ccc(N3CCOCC3)cc2)n1` were 29.8 and 26.4 µM.
The like results for `CC(=O)SCC(Cc1ccccc1)C(=O)NCC(=O)OCc1ccccc1` (centres undefined) were, in that order, 42.8 and 1.18 µM.
